Source: patent US9745265B2, “4-heteroaryl substituted benzoic acid compounds as RORgammaT inhibitors and uses thereof” (Merck Sharp & Dohme Corp., priority 2012, dated 2017)

What follows are compounds tested against human RORgammaT-Ligand Binding Domain (LBD) (Homo sapiens (Human), UniProt P51449) (assay: RORγ-Ligand Binding Domain TR-FRET Assay (SRC1_2 co-activator peptide)). Settings: not given.
Assay type: biochemical

human RORgammaT-Ligand Binding Domain (LBD), sequence (P51449 269-508): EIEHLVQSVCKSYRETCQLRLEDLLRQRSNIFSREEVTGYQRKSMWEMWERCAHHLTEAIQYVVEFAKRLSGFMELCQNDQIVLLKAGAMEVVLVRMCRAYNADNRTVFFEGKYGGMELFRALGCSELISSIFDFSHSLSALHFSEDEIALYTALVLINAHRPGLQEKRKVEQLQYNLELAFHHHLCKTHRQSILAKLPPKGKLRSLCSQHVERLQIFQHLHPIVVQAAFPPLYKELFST

Q: With `O=C(O)c1ccc(-c2nn(C(=O)c3cccc4ccoc34)c3ccccc23)c(F)c1` [Example 1S, 4-[1-(1-benzofuran-7-ylcarbonyl)-1H-indazol-3-yl]-3-fluorobenzoic acid] as the compound, how does the IC50 read?
A: 1480 nM

Q: How did the IC50 turn out when `C[C@@H]1CN(C(=O)c2ccc3c(-c4ccc(C(=O)O)cc4F)nn(C(=O)c4c(Cl)cccc4C(F)(F)F)c3c2)C[C@H](C)O1` [Example 2B, 4-(1-(2-chloro-6-(trifluoromethyl)benzoyl)-6-((2S,6R)-2,6-dimethylmorpholine-4-carbonyl)-1H-indazol-3-yl)-3-fluorobenzoic acid] was run?
A: 15 nM

Q: For `CS(=O)(=O)Nc1cc(-c2nn(C(=O)c3c(Cl)cccc3C(F)(F)F)c3cccnc23)ccc1C(=O)O` [Example 3B, 4-(1-(2-chloro-6-(trifluoromethyl)benzoyl)-1H-pyrazolo[4,3-b]pyridin-3-yl)-2-(methylsulfonamido)benzoic acid], which IC50 is on record?
A: 1650 nM

Q: With `O=C(O)c1ccc(-c2nn(C(=O)c3c(Cl)cccc3OC3CC3)c3ccccc23)cc1` [Example 1H, 4-(1-(2-chloro-6-cyclypropoxybenzoyl)-1H-indazol-3-yl)benzoic acid] as the compound, how does the IC50 read?
A: 39 nM

Q: `CC(C(=O)n1nc(-c2ccc(C(=O)O)cc2F)c2ccccc21)c1ccccc1` (stereo not drawn) [Example 1I, 3-fluoro-4-(1-(2-phenylpropanoyl)-1H-indazol-3-yl)benzoic acid] was tested. Which IC50 did it give?
A: 4320 nM

Q: For `COCC(=O)n1nc(-c2ccc(C(=O)O)cc2F)c2ccccc21` [Example 1J, 3-fluoro-4-[1-(methoxy-acetyl)-1H-indazol-3-yl]benzoic acid], which IC50 is on record?
A: 5570 nM

Same assay, conditions: HIS-tagged RORγ-LBD 3 nM, biotinylated SRC1 LXXLL peptide 100 nM, incubated overnight at 4° C., 665/615 nm ratio

Q: With `Cc1cc(N2CCOCC2)cc(Cl)c1C(=O)n1nc(-c2ccc(C(=O)O)cc2F)c2ncccc21` [Example 40A, 4-(1-(2-chloro-6-methyl-4-morpholinobenzoyl)-1H-pyrazolo[4,3-b]pyridin-3-yl)-3-fluorobenzoic acid] as the compound, how does the IC50 read?
A: 6870 nM

Q: For `CC(C)(C)OC(=O)Nc1cc2c(-c3ccc(C(=O)O)cc3F)cn(C(=O)c3c(Cl)cccc3C(F)(F)F)c2cn1` [Example 28A, 4-(5-(tert-butoxycarbonylamino)-1-(2-chloro-6-(trifluoromethyl)benzoyl)-1H-pyrrolo[2,3-c]pyridin-3-yl)-3-fluorobenzoic acid], which IC50 is on record?
A: 182 nM

Q: Which IC50 does the source give for `Cc1cc(N(C)C)cc(Cl)c1C(=O)n1nc(-c2ccc(C(=O)O)cc2F)c2ncccc21` [Example 42A, 4-(1-(2-chloro-4-(dimethylamino)-6-methylbenzoyl)-1H-pyrazolo[4,3-b]pyridin-3-yl)-3-fluorobenzoic acid] here?
A: 2320 nM

Q: `CC(C)(C)OC(=O)Nc1cnc2c(-c3ccc(C(=O)O)cc3F)nn(C(=O)c3c(Cl)cccc3C(F)(F)F)c2c1` [Example 29A, 4-(6-(tert-butoxycarbonylamino)-1-(2-chloro-6-(trifluoromethyl)benzoyl)-1H-pyrazolo[4,3-b]pyridin-3-yl)-3-fluorobenzoic acid] was tested. Which IC50 did it give?
A: 191 nM

Q: With `O=C(O)c1ccc(-c2nn(C(=O)c3c(Cl)cccc3C(F)(F)F)c3cc(N4CCOCC4)ccc23)cc1` [Example 4H, 4-(1-(2-chloro-6-(trifluoromethyl)benzoyl)-6-morpholino-1H-indazol-3-yl)benzoic acid] as the compound, how does the IC50 read?
A: 4320 nM

Q: How did the IC50 turn out when `CC(O)C#Cc1ccc2c(-c3ccc(C(=O)O)cc3F)nn(C(=O)c3c(Cl)cccc3C(F)(F)F)c2c1` (stereo not drawn) [Example 12A, 4-(1-(2-chloro-6-(trifluoromethyl)benzoyl)-6-(3-hydroxybut-1-ynyl)-1H-indazol-3-yl)-3-fluorobenzoic acid] was run?
A: 105 nM

Q: With `O=C1CCN(C(=O)c2ccc3c(-c4ccc(C(=O)O)cc4F)nn(C(=O)c4c(Cl)cccc4C(F)(F)F)c3c2)CC1` [Example 2C, 4-(1-(2-chloro-6-(trifluoromethyl)benzoyl)-6-(4-oxopiperidine-1-carbonyl)-1H-indazol-3-yl)-3-fluorobenzoic acid] as the compound, how does the IC50 read?
A: 4 nM

Q: With `CC(=O)Nc1cc(-c2nn(C(=O)c3c(Cl)cccc3C(F)(F)F)c3ccccc23)ccc1C(=O)O` [Example 3A, 2-acetamido-4-(1-(2-chloro-6-(trifluoromethyl)benzoyl)-1H-indazol-3-yl)benzoic acid] as the compound, how does the IC50 read?
A: 1470 nM

Q: Which IC50 does the source give for `CN(c1ccc2c(-c3ccc(C(=O)O)cc3F)nn(C(=O)c3c(Cl)cccc3C(F)(F)F)c2c1)S(C)(=O)=O` [Example 5G, 4-(1-(2-chloro-6-(trifluoromethyl)benzoyl)-6-(N-methylmethylsulfonamido)-1H-indazol-3-yl)-3-fluorobenzoic acid] here?
A: 1500 nM
